In ChEMBL document CHEMBL3351635, “Novel nitro(triazole/imidazole)-based heteroarylamides/sulfonamides as potential antitrypanosomal agents” (Eur J Med Chem, 2014):

Tests used:
[1] = Selectivity index, ratio of IC50 for rat L6 cells to IC50 for bloodstream forms of Trypanosoma brucei rhodesiense STIB 900; format: toxicity, cell-based; conditions: read-out: Ratio IC50
Trypanosoma cruzi [2] = assay: Antiparasitic activity against trypomastigote forms of Trypanosoma cruzi Tulahuen C2C4 infected in rat L6 cells assessed as inhibition of growth after 96 hrs by inverted microscopy; format: functional, organism-based; conditions: Tulahuen C2C4, L6, 96 h
[3] = Selectivity index, ratio of IC50 for rat L6 cells to IC50 for trypomastigote forms of Trypanosoma cruzi Tulahuen C2C4 infected in rat L6 cells; format: toxicity, cell-based; conditions: read-out: Ratio IC50
[4] = Selectivity index, ratio of IC50 for rat L6 cells to IC50 for axenic amastigote forms of Leishmania donovani MHOM/ET/67/L82; format: toxicity, cell-based; conditions: read-out: Ratio IC50
[5] = tested on: Trypanosoma brucei rhodesiense; assay: Antiparasitic activity against bloodstream forms of Trypanosoma brucei rhodesiense STIB 900 assessed as inhibition of growth after 72 hrs by resazurin assay; format: functional, organism-based; conditions: STIB 900, 72 h
Trypanosoma cruzi [6] = assay: Ratio of benznidazol IC50 to compound IC50 for trypomastigote forms of Trypanosoma cruzi Tulahuen C2C4 infected in rat L6 cells assessed as inhibition of growth after 96 hrs by inverted microscopy; format: functional
Leishmania donovani = assay: Antiparasitic activity against axenic amastigote forms of Leishmania donovani MHOM/ET/67/L82 assessed as inhibition of growth after 72 hrs by resazurin assay; format: functional, organism-based; conditions: MHOM/ET/67/L82, 72 h
L6 = assay: Cytotoxicity against rat L6 cells after 72 hrs by alamar blue assay; format: cell-based; conditions: L6, 72 h
[7] = tested on: Trypanosoma brucei brucei; assay: Trypanocidal activity against bloodstream forms of Trypanosoma brucei brucei Lister 427 clone 221a overexpressing type I nitroreductase assessed as inhibition of proliferation after 3 days by resazurin assay in presence of tetracycline; format: functional, organism-based; conditions: 72 h
[8] = tested on: Trypanosoma brucei brucei; assay: Ratio of IC50 for bloodstream forms of Trypanosoma brucei brucei Lister 427 clone 221a overexpressing type I nitroreductase in absence of tetracycline to IC50 for bloodstream forms of Trypanosoma brucei brucei Lister 427 clone 221a overexpressing type I nitroreductase in presence of tetracycline; format: functional
[9] = tested on: Trypanosoma brucei brucei; assay: Trypanocidal activity against bloodstream forms of Trypanosoma brucei brucei Lister 427 clone 221a overexpressing type I nitroreductase assessed as inhibition of proliferation after 3 days by resazurin assay in absence of tetracycline; format: functional, organism-based; conditions: 72 h
[10] = tested on: Trypanosoma brucei brucei; assay: Trypanocidal activity against wild type bloodstream forms of Trypanosoma brucei brucei Lister 427 clone 221a assessed as inhibition of proliferation after 3 days by resazurin assay; format: functional, organism-based; conditions: 72 h
[11] = Selectivity ratio of IC50 for trypomastigote forms of Trypanosoma cruzi Tulahuen C2C4 infected in rat L6 cells to IC50 for bloodstream forms of Trypanosoma brucei rhodesiense STIB 900; format: functional
[12] = biological target: Sterol 14-alpha demethylase (Trypanosoma cruzi (strain CL Brener), UniProt Q7Z1V1); assay: Binding affinity to Trypanosoma cruzi CYP51
Sterol 14-alpha demethylase, sequence (Q7Z1V1 whole entry): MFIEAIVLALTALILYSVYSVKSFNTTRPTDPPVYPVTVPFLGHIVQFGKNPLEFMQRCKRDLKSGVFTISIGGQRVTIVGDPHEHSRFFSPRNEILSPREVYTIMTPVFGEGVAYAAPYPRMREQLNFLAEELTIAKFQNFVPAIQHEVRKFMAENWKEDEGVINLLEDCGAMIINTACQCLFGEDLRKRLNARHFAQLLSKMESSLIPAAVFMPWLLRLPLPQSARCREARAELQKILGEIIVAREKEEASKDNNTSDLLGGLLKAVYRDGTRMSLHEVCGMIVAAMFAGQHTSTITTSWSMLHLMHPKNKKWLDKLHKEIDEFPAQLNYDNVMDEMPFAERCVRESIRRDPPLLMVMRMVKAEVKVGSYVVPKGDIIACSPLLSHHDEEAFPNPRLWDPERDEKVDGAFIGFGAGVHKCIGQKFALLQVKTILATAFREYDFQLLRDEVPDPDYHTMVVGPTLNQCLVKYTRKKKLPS

| Compound | selectivity ratio [1] | IC50 (Trypanosoma cruzi [2]) | selectivity ratio [3] | selectivity ratio [4] | IC50 [5] | Ratio IC50 (Trypanosoma cruzi [6]) | IC50 (Leishmania donovani) | IC50 (L6) | IC50 [7] | Ratio IC50 [8] | IC50 [9] | IC50 [10] | Ratio IC50 [11] | Kd [12] |
| --- | --- | --- | --- | --- | --- | --- | --- | --- | --- | --- | --- | --- | --- | --- |
| O=[N+]([O-])c1nccn1CCCNS(=O)(=O)c1cc(Cl)sc1Cl | 3 | 6.99 µM | 15 | 8 | 40.3 µM | 0.32 | 13.1 µM | 108 µM | – | – | – | – | – | – |
| CCCCCCCCCCCCCCCCOP(=O)([O-])OCC[N+](C)(C)C [MILTEFOSINE] | – | – | – | – | – | – | 0.39 µM | – | – | – | – | – | – | – |
| O=C(NCCCn1cnc([N+](=O)[O-])n1)c1ccc(C(F)(F)F)nc1 | > 82 | 3.46 µM | > 84 | – | – | 0.5 | – | > 291 µM | – | – | – | – | – | – |
| O=[N+]([O-])c1ncn(CCCCNS(=O)(=O)c2ccc(Cl)s2)n1 | 247 | 0.462 µM | 278 | 6 | 0.52 µM | 4.42 | 20 µM | 128 µM | 0.55 µM | 39.2 | 21.6 µM | 22.9 µM | – | – |
| Cc1cc(C(=O)NCCCn2cnc([N+](=O)[O-])n2)c(C)o1 | > 73 | 8.87 µM | > 39 | > 3 | 4.71 µM | 0.25 | 132 µM | > 341 µM | – | – | – | – | – | – |
| O=C(NCCCCn1cnc([N+](=O)[O-])n1)c1ccsc1 | > 418 | 1.75 µM | > 194 | > 12 | 0.81 µM | 1.3 | 27.7 µM | > 339 µM | 0.31 µM | 8 | 2.49 µM | 3.02 µM | – | – |
| O=[N+]([O-])c1ncn(CCCNS(=O)(=O)c2cc(Cl)sc2Cl)n1 | 75 | 0.552 µM | 216 | 7 | 1.59 µM | 3.7 | 17.8 µM | 119 µM | 0.22 µM | 19.3 | 4.25 µM | 2.94 µM | – | – |
| O=C(NCCCCn1cnc([N+](=O)[O-])n1)c1nc2ccccc2s1 | 89 | 0.422 µM | 364 | 6 | 1.73 µM | 5.36 | 27.7 µM | 154 µM | 0.36 µM | 3.9 | 1.39 µM | 1.36 µM | – | – |
| O=C(NCCCn1cnc([N+](=O)[O-])n1)c1ccnc(Cl)c1 | > 143 | 13.5 µM | > 24 | > 4 | 2.25 µM | 0.17 | 82.4 µM | > 322 µM | 5.66 µM | 1.2 | 6.99 µM | > 7.99 µM | 6 | – |
| O=C(NCCCn1cnc([N+](=O)[O-])n1)c1cc2ccccc2s1 | 665 | 0.293 µM | 425 | 8 | 0.187 µM | 7.72 | 14.7 µM | 124 µM | 0.07 µM | 18.4 | 1.29 µM | > 0.93 µM | – | – |
| O=[N+]([O-])c1ncn(CCCNS(=O)(=O)c2cc(Cl)c(Cl)s2)n1 | 200 | 0.158 µM | 639 | 8 | 0.505 µM | 14.31 | 13.2 µM | 101 µM | 0.52 µM | 32.6 | 17 µM | 15.5 µM | – | – |
| O=C(NCCCCn1cnc([N+](=O)[O-])n1)c1sc2ccccc2c1Cl | > 270 | 0.187 µM | > 1410 | > 23 | 0.978 µM | 12.09 | 11.5 µM | > 264 µM | 0.16 µM | 3 | 0.48 µM | 0.44 µM | – | – |
| O=[N+]([O-])c1ncn(CCCCNS(=O)(=O)c2cc(Cl)c(Cl)s2)n1 | 447 | 0.373 µM | 261 | 9 | 0.218 µM | 6.07 | 10.6 µM | 97 µM | 0.19 µM | 2.4 | 0.46 µM | 0.61 µM | – | – |
| Cc1nc([N+](=O)[O-])cn1CCCNC(=O)c1nc2ccccc2s1 | 2 | 105 µM | > 3 | – | 173 µM | 0.01 | – | > 290 µM | – | – | – | – | – | – |
| CC1CS(=O)(=O)CCN1/N=C/c1ccc([N+](=O)[O-])o1 (stereo unspecified) [NIFURTIMOX] | – | – | – | – | – | – | – | – | – | 13.2 | – | – | – | – |
| Nc1nc(N)nc(Nc2ccc([As]3SCC(CO)S3)cc2)n1 (stereo unspecified) [MELARSOPROL] | – | – | – | – | – | – | – | – | – | 1 | – | 0.006 µM | – | – |
| Cc1nc([N+](=O)[O-])cn1CCCNC(=O)c1sc2ccccc2c1Cl | 5 | 32.2 µM | 6 | – | 39.4 µM | 0.05 | – | 189 µM | – | – | – | – | – | – |
| O=C(Cn1ccnc1[N+](=O)[O-])NCc1ccccc1 [BENZNIDAZOLE] | – | 2.13 µM | – | – | – | – | – | – | – | 9.9 | – | – | – | – |
| O=C(NCCCn1cnc([N+](=O)[O-])n1)c1ccsc1 | > 389 | 3.99 µM | > 89 | > 5 | 0.915 µM | 0.57 | 71.2 µM | > 356 µM | 0.29 µM | 73 | 21.2 µM | 26.8 µM | – | – |
| O=[N+]([O-])c1nccn1CCCNS(=O)(=O)c1cc(Cl)c(Cl)s1 | 2 | 4.75 µM | 16 | 10 | 32.7 µM | 0.48 | 7.35 µM | 75 µM | – | – | – | – | – | – |
| O=[N+]([O-])c1ncn(CCCNS(=O)(=O)c2ccc(Cl)s2)n1 | 122 | 0.438 µM | 556 | 7 | – | 3.6 | – | – | – | 18.9 | – | – | – | 65.2 µM |
| Cc1csc(C(=O)NCCCn2cnc([N+](=O)[O-])n2)c1 | 176 | 2.55 µM | 68 | 4 | 0.98 µM | 0.8 | 46.1 µM | 173 µM | 0.33 µM | 19.2 | 6.34 µM | 9.69 µM | – | – |
| Cc1ccoc1C(=O)NCCCn1cnc([N+](=O)[O-])n1 | > 22 | 30.4 µM | > 12 | > 3 | 16.4 µM | 0.07 | 139 µM | > 358 µM | – | – | – | – | – | – |
| Cc1nc([N+](=O)[O-])cn1CCCNS(=O)(=O)c1ccc(Cl)s1 | 6 | 102 µM | 3 | – | 47.2 µM | 0.02 | – | 261 µM | – | – | – | – | – | – |
